Patent US20240025862A1, “SUBSTITUTED N-PHENYLURACILS AND SALTS THEREOF, AND USE THEREOF AS HERBICIDAL ACTIVE SUBSTANCES” (Bayer Aktiengesellschaft, priority 2020, published 2024)

Legend:
Format in all cases: in vivo
[1] = test system: Glycine max (GLXMA); test: Post-emergence crop plant compatibility, greenhouse pot test; conditions: 1.25 g/ha
Outline: (§1)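 Percent crop injury was judged by eye roughly three weeks after treatment, relative to untreated plants, where 100% meant death. Application was a post-emergence spray at the one-leaf stage, 600 l/ha water volume with 0.5% additive; letters a, b, c denote differing dose rates.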

[2] = test system: Zea mays (ZEAMX); test: as above; conditions: 1.25 g/ha, vs untreated controls
Outline: as §1

[3] = test system: Triticum aestivum (TRZAS); test: as above; conditions: vs untreated controls
Outline: as §1

[4] = test system: Pharbitis purpurea (PHBPU); test: Post-emergence herbicidal action, greenhouse pot test; conditions: Ipomoea purpurea, 504 h, read-out: Post-emergence action against PHBPU in %; for pest or weed control at 5 g/ha: dosage 5 g/ha; for pest or weed control at 20 g/ha: dosage 20 g/ha
Outline: (§2)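 Greenhouse-grown weeds in sandy loam were sprayed post-emergence at the one-leaf stage, 2–3 weeks after sowing. Compounds were formulated as WP or EC in water with 0.5% additive at 600 l/ha, at rates of 20 g/ha or less. Visual rating after about 3 weeks used a scale from 0% (like untreated control) to 100% (plants dead).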

[5] = test system: Amaranthus retroflexus (AMARE); test: as above; conditions: Amaranthus retroflexus, 504 h, rated visually after about 3 weeks vs untreated controls, 100% = plants have died; for pest or weed control at 1.25 g/ha: read-out: Post-emergence action at 1.25 g/ha against AMARE in %; for pest or weed control at 5 g/ha: read-out: Post-emergence action at 5 g/ha against AMARE in %; for pest or weed control at 20 g/ha: read-out: Post-emergence action at 20 g/ha against AMARE in %
Outline: as §2

[6] = test system: Avena fatua (AVEFA); test: as above; conditions: Avena fatua, 504 h, 20 g/ha, rated visually after about 3 weeks vs untreated controls, 100% = plants have died, read-out: Post-emergence action at 20 g/ha against AVEFA in %
Outline: as §2

[7] = test system: Lolium rigidum (LOLRI); test: as above; conditions: Lolium rigidum, 504 h, dosage 20 g/ha, read-out: Post-emergence action against LOLRI in %
Outline: as §2

[8] = test system: Polygonum convolvulus (POLCO); test: as above; conditions: Fallopia convolvulus, 504 h, read-out: Post-emergence action against POLCO in %; for pest or weed control at 5 g/ha: dosage 5 g/ha; for pest or weed control at 20 g/ha: dosage 20 g/ha
Outline: as §2

[9] = test system: Abutilon theophrasti (ABUTH); test: as above; conditions: Abutilon theophrasti, 504 h, rated visually after about 3 weeks vs untreated controls, 100% = plants have died; for pest or weed control at 1.25 g/ha: read-out: Post-emergence action at 1.25 g/ha against ABUTH in %; for pest or weed control at 5 g/ha: read-out: Post-emergence action at 5 g/ha against ABUTH in %; for pest or weed control at 20 g/ha: read-out: Post-emergence action at 20 g/ha against ABUTH in %
Outline: as §2

[10] = test system: Veronica persica (VERPE); test: as above; conditions: Veronica persica, 504 h, read-out: Post-emergence action against VERPE
Outline: as §2

[11] = test system: Viola tricolor (VIOTR); test: as above; conditions: Viola tricolor, 504 h, read-out: Post-emergence action against VIOTR
Outline: as §2

[12] = test system: Echinochloa crus-galli (ECHCG); test: Post-emergence herbicidal action, greenhouse pot test (also comparative test C); conditions: for pest or weed control at 5 g/ha / pest or weed control at 20 g/ha: Echinochloa crus-galli, 504 h, read-out: Post-emergence action against ECHCG in %; for pest or weed control at 5 g/ha: dosage 5 g/ha; for pest or weed control at 20 g/ha: dosage 20 g/ha
Outline: (§3)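 Greenhouse pot plants in sandy loam were sprayed post-emergence at the one-leaf stage (2–3 weeks after sowing) with WP or EC formulations plus 0.5% additive at 600 l/ha water. Activity was rated visually after about 3 weeks versus untreated controls (100% = dead, 0% = like control); rates were 20 g/ha or less, and 5 g/ha or less in the comparative test.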

[13] = test system: Matricaria inodora (MATIN); test: as above; conditions: Tripleurospermum inodorum, 504 h, read-out: Post-emergence action against MATIN in %; for pest or weed control at 5 g/ha: dosage 5 g/ha; for pest or weed control at 20 g/ha: dosage 20 g/ha
Outline: as §3

[14] = test system: Setaria viridis (SETVI); test: as above; conditions: Setaria viridis, 504 h; for pest or weed control at 20 g/ha: read-out: Post-emergence action against SETVI; for pest or weed control at 1.25 g/ha: dosage 1.25 g/ha; for pest or weed control at 1.25 g/ha / pest or weed control at 5 g/ha: read-out: Post-emergence action against SETVI in %; for pest or weed control at 5 g/ha: dosage 5 g/ha
Outline: as §3

[15] = test system: Alopecurus myosuroides (ALOMY); test: as above; conditions: Alopecurus myosuroides, 504 h, rated visually after about 3 weeks vs untreated controls, 100% = plants have died; for pest or weed control at 5 g/ha: read-out: Post-emergence action at 5 g/ha against ALOMY in %; for pest or weed control at 20 g/ha: read-out: Post-emergence action at 20 g/ha against ALOMY in %
Outline: as §3

[16] = test system: Oryza sativa (ORYSA); test: Post-emergence crop plant compatibility, greenhouse pot test (also comparative test C); conditions: for Post-emergence action against ORYSA (crop plant compatibility): vs untreated controls
Outline: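 Rice and other crops sprayed post-emergence at one-leaf stage (2–3 weeks after sowing) with WP or EC formulations plus 0.5% additive at 600 l/ha water. Visual rating about 3 weeks later versus untreated controls (100% = dead, 0% = like control); suffixes a–c denote different doses.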

Row | SMILES | Post-emergence action against GLXMA in % [1] [%] | Post-emergence action against TRZAS (crop plant compatibility) ([3]; 1.25 g/ha) [%] | pest or weed control at 5 g/ha [4] [%] | pest or weed control at 20 g/ha [4] [%] | pest or weed control at 1.25 g/ha [5] [%] | pest or weed control at 5 g/ha [5] [%] | pest or weed control at 20 g/ha [5] [%] | pest or weed control at 20 g/ha [6] [%] | pest or weed control at 20 g/ha [7] [%] | pest or weed control at 5 g/ha [8] [%] | pest or weed control at 20 g/ha [8] [%] | pest or weed control at 1.25 g/ha [9] [%] | pest or weed control at 5 g/ha [9] [%] | pest or weed control at 20 g/ha [9] [%] | pest or weed control at 5 g/ha [10] [%] | pest or weed control at 20 g/ha [10] [%] | pest or weed control at 1.25 g/ha [11] [%] | pest or weed control at 5 g/ha [11] [%] | pest or weed control at 20 g/ha [11] [%] | pest or weed control at 5 g/ha [12] [%] | other results
1 | COCCOC(=O)COc1ccccc1Oc1cc(-n2c(=O)cc(C(F)(F)F)n(C)c2=O)c(F)cc1[N+](=O)[O-] [I.6-1, 2-Methoxyethyl (2-{4-fluoro-5-[3-methyl-2,6-dioxo-4-(trifluoromethyl)-3,6-dihydropyrimidin-1(2H)-yl]-2-nitrophenoxy}phenoxy)acetate] | 20 | 10 | 100 | 100 | 100 | 100 | 100 | 100 | 80 | 100 | 100 | 100 | 100 | 100 | 100 | 100 | 100 | 100 | 100 | 90 | Post-emergence action against ZEAMX (crop plant compatibility) [2]: 20%; Post-emergence action against TRZAS (crop plant compatibility) ([3]; 5 g/ha): 20%; Post-emergence action at 1.25 g/ha against ECHCG in % ([12]; 1.25 g/ha, rated visually after about 3 weeks vs untreated controls, 100% = plants have died): 90%; pest or weed control at 20 g/ha [12]: 100%; pest or weed control at 5 g/ha [13]: 100%; pest or weed control at 20 g/ha [13]: 100%; pest or weed control at 20 g/ha [14]: 100%; pest or weed control at 1.25 g/ha [14]: 100%; pest or weed control at 5 g/ha [14]: 100%; pest or weed control at 5 g/ha [15]: 80%; pest or weed control at 20 g/ha [15]: 100%; Post-emergence action against ORYSA (crop plant compatibility) ([16]; 1.25 g/ha): 0%; Post-emergence action against ORYSA (crop plant compatibility) ([16]; 5 g/ha): 10%; Post-emergence action against ORYSA in % ([16]; 20 g/ha, crop plant compatibility): 20%
2 | CC(C#N)OC(=O)COc1ccccc1Oc1cc(-n2c(=O)cc(C(F)(F)F)n(C)c2=O)c(F)cc1Cl (stereo not drawn) [I.7-177, 1-Cyanoethyl (2-{2-chloro-4-fluoro-5-[3-methyl-2,6-dioxo-4-(trifluoromethyl)-3,6-dihydropyrimidin-1(2H)-yl]phenoxy}phenoxy)acetate] | 0 | 0 | 100 | 100 | 100 | 100 | 100 | 80 | 80 | 80 | 100 | 100 | 100 | 100 | 100 | 100 | 100 | 100 | 100 | 100 | pest or weed control at 1.25 g/ha ([4]; dosage 1.25 g/ha): 90%; pest or weed control at 1.25 g/ha ([10]; 1.25 g/ha): 90%; pest or weed control at 20 g/ha [12]: 100%; pest or weed control at 1.25 g/ha ([13]; dosage 1.25 g/ha): 80%; pest or weed control at 5 g/ha [13]: 80%; pest or weed control at 20 g/ha [13]: 80%; pest or weed control at 20 g/ha [14]: 100%; pest or weed control at 1.25 g/ha [14]: 100%; pest or weed control at 5 g/ha [14]: 100%; pest or weed control at 5 g/ha [15]: 90%; pest or weed control at 20 g/ha [15]: 100%; Post-emergence action against ORYSA (crop plant compatibility) ([16]; 1.25 g/ha): 0%
